Experimental data as given in patent publication US8063219B2, “Nitrogenous heterocyclic compounds, preparation thereof and use thereof as antibacterial medicaments” (Novexel, priority 2007, dated 2011).
Converted amounts (≈) assume the structure as drawn.

What was measured:
Assay in all cases: In vitro activity, dilution method in liquid medium (MIC)
Format in all cases: cell-based
[1] = test system: Pseudomonas aeruginosa 1771 strains wild type; settings: for Activity against Pseudomonas aeruginosa (in words): in vitro
Description: (§1) A series of tubes are prepared in which equal quantities of sterile nutrient medium are placed, and increasing quantities of the product being studied are placed in each tube then each tube is plated with a bacterial strain. After 24 hours incubation in an oven at 37° C., the growth inhibition is assessed by transillumination, which makes it possible to determine the minimum inhibition concentrations (MIC) expressed in μg/ml.
Tests are carried out in this way with the products of Examples 1 and 2 and compared with the products of Examples and 19 of application WO 02/100860.

[2] = test system: Pseudomonas aeruginosa strains resisting via efflux pumps
Description: as §1

[3] = test system: Pseudomonas aeruginosa PA01 wild type
Description: as §1

[4] = test system: Pseudomonas aeruginosa strains resisting via β-lactamases; settings: Resisting via β-lactamases [8 strains]
Description: as §1

[5] = test system: Pseudomonas aeruginosa strain resisting via porin mutations; settings: for MIC (μg/ml) 24 h: Resisting via porin mutations [1 strain]
Description: as §1

[6] = 1771 strains wild type, 24 h incubation at 37° C.
[7] = Resisting via efflux pumps, second set [5 strains]
[8] = Pseudomonas aeruginosa, 24 h, read-out: MIC (μg/ml) 24 h

With `CC(C)(O/N=C(\C(=O)N[C@@H]1C(=O)N2C(C(=O)[O-])=C(C[n+]3ccccc3)CS[C@H]12)c1csc(N)n1)C(=O)O` [Ceftazidine, reference compound] the “MIC (μg/ml) 24 h” value [1, 6] was 1 µg/mL (≈ 1.83 µM), the “MIC (μg/ml) 24 h” value ([2]; Resisting via efflux pumps [11/5 strains], set not given) was “<=0.03-8 μg/ml” and the “MIC (μg/ml) 24 h” value [3] was 2 µg/mL (≈ 3.66 µM). For the same compound, the “MIC (μg/ml) 24 h” value [4] was 2 to 32 µg/mL and the “MIC (μg/ml) 24 h” value [5] was 2 µg/mL (≈ 3.66 µM).
In the case of “The sodium and trifluoroacetate salt of trans[[8-(amino-methyl)-4,8-dihydro-6-oxo-5-(sulphooxy)-4,7-methano-7H-pyrazolo[3,4-e][1,3]diazepin-6(5H)-one [Ex 2]”, the “MIC (μg/ml) 24 h” value [1, 6] is reported as 0.25 µg/mL, the “Activity against Pseudomonas aeruginosa (in words)” value [1] is reported as “very active” and the “MIC (μg/ml) 24 h” value [2, 7] is reported as “—/0.5-1 μg/ml”. For the same compound, the “MIC (μg/ml) 24 h” value [4] was 0.25 to 1 µg/mL.
`C[C@@H](O)[C@H]1C(=O)N2C(C(=O)O)=C(SCCN=CN)C[C@H]12` [Imipenem, reference compound] gave an MIC ([1]; Pseudomonas aeruginosa, 1771 strains wild type, 24 h incubation at 37° C., read-out: MIC (μg/ml) 24 h) of 1 µg/mL (≈ 3.34 µM), an MIC [2, 8] of 0.25 to 4 µg/mL (≈ 0.835 to 13.4 µM) and an MIC ([3]; Pseudomonas aeruginosa, PA01WILDTYPE, 24 h, read-out: MIC (μg/ml) 24 h) of 1 µg/mL (≈ 3.34 µM). The MIC [4, 8] was 2 to 32 µg/mL (≈ 6.68 to 107 µM) and the MIC [5, 8] was 16 µg/mL (≈ 53.4 µM).
In the case of “sodium and trifluoroacetate salts of trans[[8-(aminomethyl)-4,8-dihydro-1-methyl-6-oxo-5-(sulfooxy)-4,7-methano-7H-pyrazolo[3,4-e][1,3]diazepin-6(5H)-one [Ex 1]”, the “MIC (μg/ml) 24 h” value [1, 6] is reported as 0.12 µg/mL, the “Activity against Pseudomonas aeruginosa (in words)” value [1] is reported as “very active” and the “MIC (μg/ml) 24 h” value ([2]; Resisting via efflux pumps, first set [11 strains]) is reported as 0.5 to 4 µg⁻¹ mL⁻¹. For the same compound, the “MIC (μg/ml) 24 h” value [2, 7] was 0.25 to 0.5 µg/mL, the “MIC (μg/ml) 24 h” value [3] was 1 µg/mL and the “MIC (μg/ml) 24 h” value [4] was 1 to 2 µg/mL. The “MIC (μg/ml) 24 h” value [5] was 2 µg/mL.
